Legend:
Test in all cases: Test F preemergence test
bermudagrass = type: in vivo, Cynodon dactylon; conditions: scale 0 to 100
Procedure, shortened: (§1)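 Preemergence application to planted seeds, or postemergence to sugarcane plants; compound in non-phytotoxic solvent mix plus surfactant. Greenhouse, 14-21 days. Visual rating vs. controls.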

kochia = type: in vivo, Kochia scoparia; conditions: scale 0 to 100
Procedure, shortened: as §1

pitted morningglory = type: in vivo, Ipomoea lacunosa; conditions: scale 0 to 100
Procedure, shortened: as §1

purple nutsedge = type: in vivo, Cyperus rotundus; conditions: scale 0 to 100
Procedure, shortened: as §1

mustard = type: in vivo, Brassica nigra; conditions: scale 0 to 100
Procedure, shortened: as §1

guineagrass = type: in vivo, Panicum maximum; conditions: scale 0 to 100
Procedure, shortened: as §1

dallisgrass = type: in vivo, Paspalum dilatatum; conditions: scale 0 to 100
Procedure, shortened: as §1

barnyardgrass = type: in vivo, Echinochloa crus-galli
Procedure, shortened: as §1

prickly sida = type: in vivo, Sida spinosa; conditions: scale 0 to 100
Procedure, shortened: as §1

common purslane = type: in vivo, Portulaca oleracea; conditions: scale 0 to 100
Procedure, shortened: as §1

broadleaf signalgrass = type: in vivo, Brachiaria platyphylla; conditions: scale 0 to 100
Procedure, shortened: as §1

common groundsel = type: in vivo, Senecio vulgaris; conditions: scale 0 to 100
Procedure, shortened: as §1

common chickweed = type: in vivo, Stellaria media; conditions: scale 0 to 100
Excerpt: Seeds of plant species selected from bermudagrass (Cynodon dactylon), Surinam grass (Brachiaria decumbens), large crabgrass (Digitaria sanguinalis), green foxtail (Setaria viridis), goosegrass (Eleusine indica), johnsongrass (Sorghum halepense), kochia (Kochia scoparia), pitted morningglory (Ipomoea lacunosa), purple nutsedge (Cyperus rotundus), common ragweed (Ambrosia elation), mustard (Brassica nigra), guineagrass (Panicum maximum), […] (Paspalum dilatatum), barnyardgrass (Echinochloa crus-galli), southern sandbur (Cenchrus echinatus), common sowthistle (Sonchus oleraceous), prickly […] spinosa), Italian ryegrass (Lolium multiflorum), common purslane (Portulaca oleracea), broadleaf signalgrass (Brachiaria platyphylla), common groundsel (Senecio vulgaris), common chickweed (Stellaria media), Virginia dayflower (Commelina virginica), annual bluegrass (Poa annua), naked crabgrass (Digitaria nuda), […] cochinchinensis), quackgrass (Elytrigia repens), Canada horseweed (Conyza canadensis), field bindweed (Convolvulus arvensis), […] (Bidens bipinnata), common mallow (Malva sylvestris), Russian thistle (Salsola kali), and sugarcane (Saccharum officinarum) were planted and treated preemergence with test chemicals formulated in a non-phytotoxic solvent mixture which included a surfactant. At a different time, sugarcane was treated with postemergence applications of some of the test chemicals formulated in the same manner. Plants were approximately 3- to 4-leaf stage for the postemergence treatments. Treated plants and controls were maintained in a greenhouse for 14 to 21 days, after which time all species were compared to controls and visually evaluated. […] A dash (-) response means no test result.

Virginia dayflower = type: in vivo, Commelina virginica; conditions: scale 0 to 100
Procedure, shortened: as §1

annual bluegrass = type: in vivo, Poa annua; conditions: scale 0 to 100
Procedure, shortened: as §1

naked crabgrass = type: in vivo, Digitaria nuda; conditions: scale 0 to 100
Procedure, shortened: as §1

quackgrass = type: in vivo, Elytrigia repens; conditions: scale 0 to 100
Procedure, shortened: as §1

common mallow = type: in vivo, Malva sylvestris; conditions: scale 0 to 100
Procedure, shortened: as §1

[1] = Preemergence, 31 g ai/ha, scale 0 to 100

CC(Oc1c(C[S+]([O-])c2ccc(Cl)c[n+]2[O-])c(C(F)(F)F)nn1C)C(F)(F)F (centres unmarked) [Compound 87]
75: Plant response rating, Barnyardgrass (barnyardgrass; [1]) | Plant response rating, Prickly Sida (prickly sida; Preemergence, 62 g ai/ha) | Plant response rating, Mallow (common mallow; Preemergence, 31 g ai/ha)
90: Morningglory plant response rating (pitted morningglory; 125 g ai/ha, preemergence) | Plant response rating, Black Mustard (mustard; Preemergence, 62 g ai/ha) | Plant response rating, Guineagrass (guineagrass; 16 g ai/ha, preemergence) | Quackgrass plant response rating (quackgrass; 125 g ai/ha, preemergence)
50: Kochia plant response rating (kochia; 125 g ai/ha, preemergence) | Plant response rating, Kochia (kochia; Preemergence, 62 g ai/ha) | Plant response rating, Dallisgrass (dallisgrass; Preemergence, 31 g ai/ha) | Plant response rating, Prickly Sida (prickly sida; Preemergence, 31 g ai/ha) | Plant response rating, Mallow (common mallow; 16 g ai/ha, preemergence)
80: Purple Nutsedge plant response rating (purple nutsedge; 125 g ai/ha, preemergence) | Dallisgrass plant response rating (dallisgrass; 125 g ai/ha, preemergence) | Plant response rating, Bluegrass (annual bluegrass; Preemergence, 62 g ai/ha) | Plant response rating, Quackgrass (quackgrass; Preemergence, 62 g ai/ha)
60: Plant response rating, Bermudagrass (bermudagrass; Preemergence, 31 g ai/ha) | Plant response rating, Purple Nutsedge (purple nutsedge; Preemergence, 31 g ai/ha) | Plant response rating, Dallisgrass (dallisgrass; Preemergence, 62 g ai/ha) | Plant response rating, Barnyardgrass (barnyardgrass; 16 g ai/ha, preemergence, scale 0 to 100 (0 no effect, 100 complete control)) | Plant response rating, Quackgrass (quackgrass; 16 g ai/ha, preemergence) | Plant response rating, Quackgrass (quackgrass; Preemergence, 31 g ai/ha)
25: Plant response rating, Bermudagrass (bermudagrass; 16 g ai/ha, preemergence)
100: Black Mustard plant response rating (mustard; 125 g ai/ha, preemergence) | Guineagrass plant response rating (guineagrass; 125 g ai/ha, preemergence) | Plant response rating, Guineagrass (guineagrass; Preemergence, 62 g ai/ha) | Plant response rating, Guineagrass (guineagrass; Preemergence, 31 g ai/ha) | Barnyardgrass plant response rating (barnyardgrass; 125 g ai/ha, preemergence, scale 0 to 100) | Plant response rating, Barnyardgrass (barnyardgrass; Preemergence, 62 g ai/ha, scale 0 to 100) | Prickly Sida plant response rating (prickly sida; 125 g ai/ha, preemergence) | Purslane plant response rating (common purslane; 125 g ai/ha, preemergence) | Chickweed plant response rating (common chickweed; 125 g ai/ha, preemergence) | Plant response rating, Chickweed (common chickweed; Preemergence, 62 g ai/ha) | Plant response rating, Chickweed (common chickweed; Preemergence, 31 g ai/ha) | Dayflower plant response rating (Virginia dayflower; 125 g ai/ha, preemergence) | Plant response rating, Dayflower (Virginia dayflower; Preemergence, 62 g ai/ha) | Plant response rating, Dayflower (Virginia dayflower; Preemergence, 31 g ai/ha) | Bluegrass plant response rating (annual bluegrass; 125 g ai/ha, preemergence) | Crabgrass, Naked plant response rating (naked crabgrass; 125 g ai/ha, preemergence) | Plant response rating, Crabgrass, Naked (naked crabgrass; Preemergence, 62 g ai/ha) | Plant response rating, Crabgrass, Naked (naked crabgrass; Preemergence, 31 g ai/ha) | Mallow plant response rating (common mallow; 125 g ai/ha, preemergence) | Plant response rating, Mallow (common mallow; Preemergence, 62 g ai/ha)
30: Plant response rating, Black Mustard (mustard; Preemergence, 31 g ai/ha)
70: Plant response rating, Bermudagrass (bermudagrass; Preemergence, 62 g ai/ha) | Plant response rating, Purple Nutsedge (purple nutsedge; Preemergence, 62 g ai/ha) | Plant response rating, Purslane (common purslane; Preemergence, 62 g ai/ha) | Plant response rating, Bluegrass (annual bluegrass; Preemergence, 31 g ai/ha)
0: Plant response rating, Kochia (kochia; 16 g ai/ha, preemergence) | Plant response rating, Kochia (kochia; Preemergence, 31 g ai/ha) | Plant response rating, Morningglory (pitted morningglory; 16 g ai/ha, preemergence) | Plant response rating, Morningglory (pitted morningglory; Preemergence, 31 g ai/ha) | Plant response rating, Black Mustard (mustard; 16 g ai/ha, preemergence) | Plant response rating, Dallisgrass (dallisgrass; 16 g ai/ha, preemergence) | Plant response rating, Prickly Sida (prickly sida; 16 g ai/ha, preemergence) | Plant response rating, Purslane (common purslane; 16 g ai/ha, preemergence) | Plant response rating, Signalgrass (broadleaf signalgrass; 16 g ai/ha, preemergence) | Plant response rating, Groundsel (common groundsel; 16 g ai/ha, preemergence) | Plant response rating, Groundsel (common groundsel; Preemergence, 62 g ai/ha) | Plant response rating, Groundsel (common groundsel; Preemergence, 31 g ai/ha) | Plant response rating, Chickweed (common chickweed; 16 g ai/ha, preemergence)
65: Plant response rating, Signalgrass (broadleaf signalgrass; Preemergence, 62 g ai/ha) | Groundsel plant response rating (common groundsel; 125 g ai/ha, preemergence)
15: Plant response rating, Signalgrass (broadleaf signalgrass; Preemergence, 31 g ai/ha)
20: Plant response rating, Purslane (common purslane; Preemergence, 31 g ai/ha)
35: Plant response rating, Morningglory (pitted morningglory; Preemergence, 62 g ai/ha) | Plant response rating, Dayflower (Virginia dayflower; 16 g ai/ha, preemergence) | Plant response rating, Bluegrass (annual bluegrass; 16 g ai/ha, preemergence)
95: Bermudagrass plant response rating (bermudagrass; 125 g ai/ha, preemergence) | Signalgrass plant response rating (broadleaf signalgrass; 125 g ai/ha, preemergence) | Plant response rating, Crabgrass, Naked (naked crabgrass; 16 g ai/ha, preemergence)

Cc1cc[n+]([O-])c(S(=O)(=O)Cc2c(C(F)(F)F)nn(C)c2OC(F)F)c1 [Compound 2]
90: Bermudagrass plant response rating (bermudagrass; 62 g ai/ha, Preemergence) | Plant response rating, Bermudagrass (bermudagrass; Preemergence, 31 g ai/ha) | Plant response rating, Guineagrass (guineagrass; Preemergence, 31 g ai/ha)
10: Plant response rating, Dallisgrass (dallisgrass; Preemergence, 31 g ai/ha) | Plant response rating, Barnyardgrass (barnyardgrass; Preemergence, 16 g ai/ha, scale 0 to 100) | Plant response rating, Chickweed (common chickweed; 8 g ai/ha, preemergence)
20: Plant response rating, Quackgrass (quackgrass; Preemergence, 31 g ai/ha)
50: Purslane plant response rating (common purslane; 62 g ai/ha, Preemergence) | Signalgrass plant response rating (broadleaf signalgrass; 62 g ai/ha, Preemergence) | Groundsel plant response rating (common groundsel; 62 g ai/ha, Preemergence) | Plant response rating, Groundsel (common groundsel; Preemergence, 31 g ai/ha)
25: Plant response rating, Bermudagrass (bermudagrass; Preemergence, 16 g ai/ha) | Plant response rating, Black Mustard (mustard; Preemergence, 16 g ai/ha) | Bluegrass plant response rating (annual bluegrass; 62 g ai/ha, Preemergence)
15: Plant response rating, Morningglory (pitted morningglory; Preemergence, 31 g ai/ha) | Plant response rating, Purple Nutsedge (purple nutsedge; Preemergence, 16 g ai/ha) | Plant response rating, Bluegrass (annual bluegrass; Preemergence, 31 g ai/ha)
65: Plant response rating, Guineagrass (guineagrass; Preemergence, 16 g ai/ha) | Dallisgrass plant response rating (dallisgrass; 62 g ai/ha, Preemergence) | Plant response rating, Crabgrass, Naked (naked crabgrass; Preemergence, 31 g ai/ha)
75: Kochia plant response rating (kochia; 62 g ai/ha, Preemergence)
95: Plant response rating, Chickweed (common chickweed; Preemergence, 31 g ai/ha)
60: Morningglory plant response rating (pitted morningglory; 62 g ai/ha, Preemergence) | Quackgrass plant response rating (quackgrass; 62 g ai/ha, Preemergence)
80: Black Mustard plant response rating (mustard; 62 g ai/ha, Preemergence) | Plant response rating, Black Mustard (mustard; Preemergence, 31 g ai/ha) | Plant response rating, Barnyardgrass (barnyardgrass; [1]) | Prickly Sida plant response rating (prickly sida; 62 g ai/ha, Preemergence) | Plant response rating, Chickweed (common chickweed; Preemergence, 16 g ai/ha) | Crabgrass, Naked plant response rating (naked crabgrass; 62 g ai/ha, Preemergence)
35: Plant response rating, Crabgrass, Naked (naked crabgrass; Preemergence, 16 g ai/ha) | Mallow plant response rating (common mallow; 62 g ai/ha, Preemergence)
100: Purple Nutsedge plant response rating (purple nutsedge; 62 g ai/ha, Preemergence) | Guineagrass plant response rating (guineagrass; 62 g ai/ha, Preemergence) | Barnyardgrass plant response rating (barnyardgrass; 62 g ai/ha, Preemergence, scale 0 to 100) | Chickweed plant response rating (common chickweed; 62 g ai/ha, Preemergence) | Dayflower plant response rating (Virginia dayflower; 62 g ai/ha, Preemergence) | Plant response rating, Dayflower (Virginia dayflower; Preemergence, 31 g ai/ha)
70: Plant response rating, Purple Nutsedge (purple nutsedge; Preemergence, 31 g ai/ha)
0: Plant response rating, Bermudagrass (bermudagrass; 8 g ai/ha, preemergence) | Plant response rating, Kochia (kochia; 8 g ai/ha, preemergence) | Plant response rating, Kochia (kochia; Preemergence, 16 g ai/ha) | Plant response rating, Kochia (kochia; Preemergence, 31 g ai/ha) | Plant response rating, Morningglory (pitted morningglory; 8 g ai/ha, preemergence) | Plant response rating, Morningglory (pitted morningglory; Preemergence, 16 g ai/ha) | Plant response rating, Purple Nutsedge (purple nutsedge; 8 g ai/ha, preemergence) | Plant response rating, Black Mustard (mustard; 8 g ai/ha, preemergence) | Plant response rating, Guineagrass (guineagrass; 8 g ai/ha, preemergence) | Plant response rating, Dallisgrass (dallisgrass; 8 g ai/ha, preemergence) | Plant response rating, Dallisgrass (dallisgrass; Preemergence, 16 g ai/ha) | Plant response rating, Barnyardgrass (barnyardgrass; 8 g ai/ha, preemergence, scale 0 to 100) | Plant response rating, Prickly Sida (prickly sida; 8 g ai/ha, preemergence) | Plant response rating, Prickly Sida (prickly sida; Preemergence, 16 g ai/ha) | Plant response rating, Purslane (common purslane; 8 g ai/ha, preemergence) | Plant response rating, Purslane (common purslane; Preemergence, 16 g ai/ha) | Plant response rating, Signalgrass (broadleaf signalgrass; 8 g ai/ha, preemergence) | Plant response rating, Signalgrass (broadleaf signalgrass; 16 g ai/ha, preemergence) | Plant response rating, Signalgrass (broadleaf signalgrass; Preemergence, 31 g ai/ha) | Plant response rating, Groundsel (common groundsel; 8 g ai/ha, preemergence) | Plant response rating, Groundsel (common groundsel; Preemergence, 16 g ai/ha) | Plant response rating, Dayflower (Virginia dayflower; 8 g ai/ha, preemergence) | Plant response rating, Dayflower (Virginia dayflower; Preemergence, 16 g ai/ha) | Plant response rating, Bluegrass (annual bluegrass; 8 g ai/ha, preemergence) | Plant response rating, Bluegrass (annual bluegrass; Preemergence, 16 g ai/ha) | Plant response rating, Crabgrass, Naked (naked crabgrass; 8 g ai/ha, preemergence) | Plant response rating, Quackgrass (quackgrass; 8 g ai/ha, preemergence) | Plant response rating, Quackgrass (quackgrass; Preemergence, 16 g ai/ha) | Plant response rating, Mallow (common mallow; 8 g ai/ha, preemergence) | Plant response rating, Mallow (common mallow; Preemergence, 16 g ai/ha) | Plant response rating, Mallow (common mallow; Preemergence, 31 g ai/ha)
40: Plant response rating, Prickly Sida (prickly sida; Preemergence, 31 g ai/ha) | Plant response rating, Purslane (common purslane; Preemergence, 31 g ai/ha)

From patent US20100298141A1, “SUBSTITUTED PYRIDINE N-OXIDE HERBICIDES” (E. I. DU PONT DE NEMOURS AND COMPANY, priority 2007, published 2010)
